The numbers were not newly measured in patent US8314084B2, “Device and methods for sequential, regional delivery of multiple cytotoxic agents and directed assembly of wound repair tissues” (priority 2002, dated 2012), which cites them from elsewhere.

SMILES strings stand for the structures.

For the data set the following is noted: given intravenously to dogs.

Consider `N.N.[Cl][Pt][Cl]` [cisplatin, Cis-diamminedichloroplatinum H], for which the “usual maximum dose-limiting schedule” value was 70 mg/m^2.
